Source: patent US9764001B2, “Target for diagnosis and treatment of diabetes and cardiovascular diseases” (The Regents of the University of California, priority 2012, dated 2017)
“Also recorded” adds a separate entry of the source. Like-named read-outs stand apart in the source and are kept apart here.

Key:
primary mouse islets = experiment: Static GSIS test using primary mouse islets; type: cell-based; conditions: FKN 100 ng/ml; PTX 250 ng/ml, Wortmannin 10 μM, PD98059 50 μM
Experimental: (FIGS. 6A-1 to 6A-4) GSIS test using primary mouse islets with or without pertussis toxin (PTX; 250 ng/ml), Wortmannin (Wort; 10 μM), or PD98059 (50 μM), in the presence or absence of FKN (100 ng/ml). Mean+/−SEM, n=6 per group.
Isolated mouse islets were cultured overnight in mouse islet media (DMEM containing 1 g/L glucose, 10% v/v FBS, 0.1% v/v Penicillin/Streptomycin).

Min6 cells [1] = experiment: Intracellular calcium level measurement (fura-2) in Min6 cells; type: cell-based, mouse
Experimental: (FIGS. 6C to 6I) Intracellular calcium level in Min6 mouse beta cells in the presence or absence of glucose (FIG. 6C, with glucose; FIG. 6D, without glucose), nimodipine (10 μM) (FIG. 6E), control antibody (FIG. 6F), anti-CX3CR1 neutralizing antibody (FIG. 6G), PTX (250 ng/ml) (FIG. 6H), or U0126 (10 μM) (FIG. 6I). Mean+/−SEM.
(FIGS. 15A-1 to 15B-3) Intracellular calcium level in Min6 cells. Min6 cells were incubated in 2.8 mM glucose media with or without U0126 (10 μM) for 30 minutes, and then subjected to intracellular calcium measurement in the presence or absence of arginine (10 mM) and/or high glucose (16.7 mM) challenge. (FIGS. 15A-1 to 15A-3) Intracellular calcium level with arginine treatment. (FIGS. 15B-1 to 15B-3) Intracellular calcium level with arginine plus high glucose (16.7 mM) treatment. Area under the curve for first 90 (FIG. 15B-1) or 60 (FIG. 15B-2) seconds was graphed in FIG. 15B-3.
The Cytoplasmic free calcium ion concentration in Min6 cells was measured by fura-2 fluorescence ratio digital imaging. Briefly, Min6 cells, grown on coverslips, were loaded with 5 μM fura-2 AM [dissolved in 0.01% Pluronic F-127 plus 0.1% DMSO in KRB] at room temperature for 60 min and then washed in fresh KRB for 30 min. The coverslips with Min6 cells were mounted in a perfusion chamber on a Nikon microscope stage.

Min6 cells [2] = experiment: GSIS test using Min6 cells; type: cell-based, mouse; conditions: for glucose- and arginine plus glucose-stimulated insulin secretion: U0126 10 μM, arginine 10 mM, glucose 16.7 mM
Experimental: (FIG. 6B) GSIS test using Min6 cells with or without FKN (100 ng/ml) or U0126 (10 μM). Mean+/−SEM.
Min6 cells were incubated in 2.8 mM glucose media with or without U0126 (10 μM) for 30 minutes, and then subjected to intracellular calcium measurement in the presence or absence of arginine (10 mM) and/or high glucose (16.7 mM) challenge.

Min6 cells [3] = experiment: Palmitate-induced ICER-1 and beta cell gene expression in Min6 cells (quantitative realtime RT-PCR); type: cell-based, mouse; conditions: palmitate 0.4 mM, FKN 100 ng/ml, U0126 10 μM, 48 h
Experimental: Min6 cells were incubated with palmitate (Pal; 0.4 mM) in the presence or absence of FKN (100 ng/ml) or U0126 (10 μM). 48 h later, cells were harvested and subjected to quantitative realtime RT-PCR.

Min6 cells [4] = experiment: ERK phosphorylation western blot in Min6 cells; type: cell-based, mouse; conditions: PTX 250 ng/ml pre-treatment 15 min
Experimental: FIG. 14. FKN stimulates ERK phosphorylation in a PTX-sensitive manner (related to FIGS. 6A-1 to 6Q-4). Min6 cells were pre-treated with DMSO (control), U0126 (10 μM), or PTX (250 ng/ml) for 15 min, and then incubated with or without FKN (100 ng) for 15 min. Cells were harvested and subjected to western blot.

human islets = experiment: Static GSIS studies using human islets; type: cell-based

**Q.** How did the “effect of inhibitor on FKN-stimulated insulin secretion” value (primary mouse islets) turn out when COc1cccc(-c2cc(=O)c3ccccc3o2)c1N [PD98059] was run?
**A.** inhibited

**Q.** N#CC(=C(/N)Sc1ccccc1N)/C(C#N)=C(\N)Sc1ccccc1N [U0126] was tested. Which “arginine plus glucose-stimulated intracellular calcium increase” value (Min6 cells [1]) did it give?
**A.** attenuated; also recorded: reduces

**Q.** What about the “effect on FKN-induced intracellular calcium increase” value (Min6 cells [1]) of the same molecule?
**A.** blocked

**Q.** And the “effect on FKN potentiation of glucose and GLP1-induced insulin secretion” value (Min6 cells [2]; FIG. 6B: U0126 10 μM, FKN 100 ng/ml)?
**A.** suppressed

**Q.** And the “glucose- and arginine plus glucose-stimulated insulin secretion” value (Min6 cells [2])?
**A.** reduces

**Q.** And the “glucose- and arginine plus glucose-stimulated insulin secretion” value (Min6 cells [2]; listed as MEK inhibitor)?
**A.** attenuated

**Q.** And the “effect of MEK inhibitor on FKN effects on ICER-1, NeuroD, PDX-1 and Glut2 expression” value (Min6 cells [3])?
**A.** abolished

**Q.** With pertussis toxin as the molecule, how does the “effect on FKN-induced intracellular calcium increase” value (Min6 cells [1]; PTX 250 ng/ml, U0126 10 μM, anti-CX3CR1 antibody vs control antibody) read?
**A.** blocked

**Q.** And the “sensitivity of FKN-stimulated ERK phosphorylation to inhibitor” value (Min6 cells [4])?
**A.** PTX-sensitive

**Q.** And the “effect of inhibitor on FKN-stimulated insulin secretion” value (primary mouse islets)?
**A.** inhibited

B1: human FKN: human fractalkine used on isolated human islets (100 or 400 ng/ml) (protein, UniProt P78423 25-397, looked up)
Fractalkine: QHHGVTKCNITCSKMTSKIPVALLIHYQQNQASCGKRAIILETRQHRLFCADPKEQWVKDAMQHLDRQAAALTRNGGTFEKQIGEVKPRTTPAAGGMDESVVLEPEATGESSSLEPTPSSQEAQRALGTSPELPTGVTGSSGTRLPPTPKAQDGGPVGTELFRVPPVSTAATWQSSAPHQPGPSLWAEAKTSEAPSTQDPSTQASTASSPAPEENAPSEGQRVWGQGQSPRPENSLEREEMGPVPAHTDAFQDWGPGSMAHVSVVPVSSEGTPSREPVASGSWTPKAEEPIHATMDPQRLGVLITPVPDAQAATRRQAVGLLAFLGLLFCLGVAMFTYQSLQGCPRKMAGEMAEGLRYIPRSCGSNSYVLVPV
**Q.** How did the “increase in GSIS” value (human islets; at the maximal concentration (100 or 400 ng/ml tested)) turn out when B1 was run?
**A.** 65%

**Q.** What about the GSIS dose response (human islets; human FKN 100 or 400 ng/ml) of the same molecule?
**A.** dose responsive increase
